{"source": "patent US4808703A", "about": "“Novel 3-(4'-aminobutylamino) propylaminobleomycin derivatives” (Zaidan Hojin Biseibutsu Kagaku Kenku Kai, priority 1983, dated 1989)", "key": {"[1]": {"test_system": "Mycobacterium smegmatis ATCC 607", "assay": "Antibacterial activity by the agar cylinder plate method, Mycobacterium smegmatis ATCC607", "assay_type": "cell-based", "settings": "copper-containing compound, standard bleomycin A2 = 1,000 mcg potency/mg", "from_the_text": "(§1) (1) Antibacterial activity against Mycobacterium smegmatis ATCC607 and Bacillus subtilis\n(§2) The above activity ws determined by the agar cylinder plate method using the above microorganisms."}, "ICR mice [2]": {"test_system": "ICR mice", "settings": "mouse, in vivo", "method": "(§3) ICR mice (male, 15-week-old) were used in groups of 10 each. The dose of each test compound was 5 mg/kg injected intraperitoneally once daily for 10 consecutive days. After the administration of the compound was completed, the animals were reared for 5 weeks for observation. Then, the animals were killed and autopsied so that the incidence and grade of pulmonary fibrosis were examined.\n(§4) The incidence of pulmonary fibrosis was expressed as the number of mice developing pulmonary fibrosis in the group of mice administered the test compound. The grade of pulmonary fibrosis was expressed as the total score for pulmonary fibrosis divided by the total number of specimens.\n(§5) 1 point: Accumulation of exudate in the alveoli, and fibrosis-like changes seen in the alveolar septum.\n(§6) 2 points: Fibrosis seen at several sites.\n4 points: Sporadic fibrosis.\n(§7) 6 points: Extensive fibrosis (fibrosis seen in more than 170 of the total region).\n(§8) The ratio in the table represents the ratio of the incidence of the test compound to that of bleomycin complex, or the ratio of the grade of the test compound to that of bleomycin complex."}, "HeLa S3 cells": {"test_system": "HeLa S3 cells", "assay": "Growth-inhibiting effect on HeLa S3 cell cultured", "assay_type": "cell-based", "settings": "3 days of incubation after addition", "method": "(2) Growth-inhibiting effect on HeLa S3 cell cultured\nA culture medium (10% calf serum-containing MEM) in a plastic dish was inoculated with HeLa S3 cells, and a bleomycin compound was added 2 days later. Incubation was continued for a further 3 days, and then the number of viable cells was counted. Growth inhibitory rate was calculated from the following equation:\nGrowth inhibitory rate (%)=100×(B-A)/(B-C)\nwhere A is the final bacterial cell count 3 days after addition of the test sample, B is the final bacterial cell count in the control involving no addition of the test sample, and C is the bacterial cell count at the time of addition of the test sample.\nID50, the concentration producing a growth inhibitory rate of 50%, was estimated from the curve of the concentration of the test sample Vs. the growth inhibitory rate."}, "Bacillus subtilis": {"test_system": "Bacillus subtilis", "assay": "Antibacterial activity by the agar cylinder plate method, Bacillus subtilis", "assay_type": "cell-based", "settings": "copper-containing compound, standard bleomycin A2 = 1,000 mcg potency/mg", "from_the_text": "as §1, §2"}, "ICR mice [3]": {"test_system": "ICR mice", "assay": "Pulmonary toxicity (fibrosis of the lung) in mice", "settings": "for Incidence: Number of mice with pulmonary fibrosis/Number of mice in the treatment group / Incidence (%) of pulmonary fibrosis / Grade: Total score for pulmonary fibrosis/Total specimens / Grade of pulmonary fibrosis (total score divided by total number of specimens): 5 mg/kg i.p. once daily for 10 days; for Incidence: Number of mice with pulmonary fibrosis/Number of mice in the treatment group / Incidence (%) of pulmonary fibrosis: autopsy after 5 weeks of observation; for Incidence: Number of mice with pulmonary fibrosis/Number of mice in the treatment group: count; for Incidence (%) of pulmonary fibrosis: percentage in parentheses; for Grade: Total score for pulmonary fibrosis/Total specimens / Grade of pulmonary fibrosis (total score divided by total number of specimens): autopsy after 5 weeks, scores 0, 1, 2, 4, 6 points; for Grade: Total score for pulmonary fibrosis/Total specimens: fraction; for Grade of pulmonary fibrosis (total score divided by total number of specimens): value in parentheses; for Grade ratio: grade of the test compound to that of bleomycin complex; for Incidence ratio: incidence of the test compound to that of bleomycin complex", "method": "as §3, §4, §5, §6\n4 points: Sporadic fibrosis.\nas §7, §8"}, "[4]": {"test_system": "Mycobacterium smegmatis ATCC 607", "settings": "copper-free bleomycin A2; standard for both Mycobacterium smegmatis ATCC607 and Bacillus subtilis; cited from earlier work"}}, "note": "Like-named read-outs stand apart in the source and are kept apart here."}
{"compound": "3-(4'-cycloundecanylmethylaminobutylamino)propylaminobleomycin [Compound 7]", "values": [{"measurement": "Antibacterial titer of copper-compound", "setting": "[1]", "value": 24240, "unit": "mcg potency/mg"}, {"measurement": "Grade ratio", "setting": "ICR mice [2]", "value": 0.00}, {"measurement": "Incidence ratio", "setting": "ICR mice [2]", "value": 0.00}, {"measurement": "Incidence: Number of mice with pulmonary fibrosis/Number of mice in the treatment group", "setting": "ICR mice [2]", "value": "0/10"}, {"measurement": "ID50 of copper-free compound (concentration producing a growth inhibitory rate of 50%)", "setting": "HeLa S3 cells", "value": 0.16, "unit": "µg/mL"}, {"measurement": "Antibacterial titer of copper-compound", "setting": "Bacillus subtilis", "value": 7330, "unit": "mcg potency/mg"}]}
{"compound": "Cc1c(N)nc(C(CC(N)=O)NCC(N)C(N)=O)nc1C(=O)NC(C(=O)NC(C)C(O)C(C)C(=O)NC(C(=O)NCCc1nc(-c2nc(C(=O)NCCCN(CCCCN(Cc3ccc(OCc4ccccc4)c(OCc4ccccc4)c3)Cc3ccc(OCc4ccccc4)c(OCc4ccccc4)c3)Cc3ccc(OCc4ccccc4)c(OCc4ccccc4)c3)cs2)cs1)C(C)O)C(OC1OC(CO)C(O)C(O)C1OC1OC(CO)C(O)C(OC(N)=O)C1O)c1cnc[nH]1", "note": "(centres unmarked) [Compound 10, 3-{N-m,p-dibenzyloxybenzyl-N-[4'bis(m,p-dibenzyloxybenzyl)aminobutyl]amino}propylaminobleomycin]", "values": [{"measurement": "Incidence: Number of mice with pulmonary fibrosis/Number of mice in the treatment group", "setting": "ICR mice [3]", "value": "0/10"}, {"measurement": "Incidence (%) of pulmonary fibrosis", "setting": "ICR mice [3]", "value": 0, "unit": "%"}, {"measurement": "Grade: Total score for pulmonary fibrosis/Total specimens", "setting": "ICR mice [3]", "value": "0/30"}, {"measurement": "Grade of pulmonary fibrosis (total score divided by total number of specimens)", "setting": "ICR mice [3]", "value": 0}, {"measurement": "Grade ratio", "setting": "ICR mice [3]", "value": 0.00}, {"measurement": "Incidence ratio", "setting": "ICR mice [3]", "value": 0.00}, {"measurement": "Antibacterial titer of copper-compound", "setting": "[1]", "value": 136, "unit": "mcg potency/mg"}, {"measurement": "Antibacterial titer of copper-compound", "setting": "Bacillus subtilis", "value": 6, "unit": "mcg potency/mg"}]}
{"compound": "Cc1c(N)nc(C(CC(N)=O)NCC(N)C(N)=O)nc1C(=O)NC(C(=O)NC(C)C(O)C(C)C(=O)NC(C(=O)NCCc1nc(-c2nc(C(=O)NCCC[N+](C)(CCCCN(Cc3ccccc3)Cc3ccccc3)Cc3ccccc3)cs2)cs1)C(C)O)C(OC1OC(CO)C(O)C(O)C1OC1OC(CO)C(O)C(OC(N)=O)C1O)c1cnc[nH]1", "note": "(centres unmarked) [Compound 12, 3-[N--methyl-N--benzyl-N--(4'-dibenzyl-aminobutyl)amino]propylaminobleomycin]", "values": [{"measurement": "Incidence: Number of mice with pulmonary fibrosis/Number of mice in the treatment group", "setting": "ICR mice [3]", "value": "0/10"}, {"measurement": "Incidence (%) of pulmonary fibrosis", "setting": "ICR mice [3]", "value": 0, "unit": "%"}, {"measurement": "Grade: Total score for pulmonary fibrosis/Total specimens", "setting": "ICR mice [3]", "value": "0/30"}, {"measurement": "Grade of pulmonary fibrosis (total score divided by total number of specimens)", "setting": "ICR mice [3]", "value": 0}, {"measurement": "Grade ratio", "setting": "ICR mice [3]", "value": 0.00}, {"measurement": "Incidence ratio", "setting": "ICR mice [3]", "value": 0.00}, {"measurement": "Antibacterial titer of copper-compound", "setting": "[1]", "value": 13733, "unit": "mcg potency/mg"}, {"measurement": "Antibacterial titer of copper-compound", "setting": "Bacillus subtilis", "value": 832, "unit": "mcg potency/mg"}]}
{"compound": "Cc1c(N)nc(C(CC(N)=O)NCC(N)C(N)=O)nc1C(=O)NC(C(=O)NC(C)C(O)C(C)C(=O)NC(C(=O)NCCc1nc(-c2nc(C(=O)NCCC[S+](C)C)cs2)cs1)C(C)O)C(OC1OC(CO)C(O)C(O)C1OC1OC(CO)C(O)C(OC(N)=O)C1O)c1cnc[nH]1", "note": "(centres unmarked) [bleomycin A2]", "values": [{"measurement": "Titer of the standard substance bleomycin A2", "setting": "[4]", "value": "1,000 mcg potency/mg"}]}
